This passage reports EC50 results from patent publication US20090088441A1, “Quinoline Compounds” (priority 2007, published 2009).

This assay concerns the target T1, GABABR1a/GABABR2 heterodimer (Homo sapiens, UniProt O75899+Q9UBS5).
T1 construct: expressed in transfected cells; membrane preparation
In words: GTPγS35 radioligand filtration-binding assay for determination of agonist potency. In kind it is biochemical. The note with it: membranes of CHO K1 Flp-In cells expressing GABABR1a/GABABR2; 30° C., 1 hour. On the procedure: The potency and efficacy of the compounds acting as agonists at the GABAB receptor was also determined in a automated GTPγS^35 radioligand filtration-binding assay.
The GABAB receptor is a G-protein coupled receptor. Binding of a ligand activates the receptor leading to recruitment of G-protein and a substitution of the G-protein bound GDP to GTP. The G-protein becomes active. The G-protein is inactivated by hydrolysis of GTP to GDP. G-proteins are membrane bound and therefore present in membrane preparations.
In the GTPγS^35 assay, GTP is not present but instead GTPγS^35 where one of the phosphate groups are substituted to a sulphur group which cannot be hydrolysed. Upon activation of the receptor, radiolabelled GTPγS^35 replaces the GDP. The complex cannot be inactivated and the radiolabelled complex is accumulating. At the end of the assay, the reaction mixture is filtered through a membrane-binding filter. Excess GTPγS^35 is removed by washing and the membrane bound S^35, which correlates to the degree of receptor activation, is measured with a β-Liquid Scintillation Counter.
The human GABABR1a was subcloned into pIRESneo3 (Clontech) using GABABR1a construct as a template (refseqN NM001470). GABABR2 was subcloned into pcDNA5/FRT (Invitrogen) using GABABR2 construct as a template (refseqN NM005458). The Kozak sequence GCCACC was introduced before the start codon in both constructs.
For generation of stable cell lines, CHO K1 Flp-In cells (Invitrogen) were grown in DMEM/F12 1:1 media supplemented with 10% FBS at 37° C. in a humidified CO2-incubator. The cells were detached with Accutase and 1.5 million cells were seeded into T75 flasks. After 24 h, transfection of the cells were performed with the GABABR2 construct. For generation of cell lines expressing GABABR2, GABABR2 plasmid (1 μg) and pOG44 from Invitrogen (9 μg) were mixed with 30 μl Lipofectamine 2000 in 600 μl OptiMEM for 20 minutes. The cells were exposed to transfection medium for 5 hours and was then replaced with culture medium. After 2 days 0.5 mg/ml Hygromycin were added to culture medium. The cells were cultured for an additional 10 days to establish a stable cell mix expressing GABABR2. For generation of a cell line expressing the GABABR1a/GABABR2 hetrodimer, GABABR1a plasmid DNA (8 μg) and Lipofectamine (30 μl) were mixed in 600 μl OptiMEM and incubated for 20 minutes before added to CHO-Flp-In cells expressing GABABR2. After 2 days additional selection agent was added (0.8 mg/ml Geneticin). The cells were cultured for another 10 days to generate a stable mixed population expressing the GABABR1a/GABABR2 heterodimer. The cell line was analyzed by GTPγS^35 assay with GABA as agonist.
GTPγS^35 radioligand filtration-binding assays were performed using an automated workstation at 30° C. for 1 hour in assay buffer (50 mM HEPES, 40 mM NaCl, 1 mM MgCl2×6H2O, 30 μg/mL Saponin, pH 7.4 at RT) containing 0.025 μg/μL of membrane protein (prepared from the cell line described above), 10 μM GDP and 0.55 nCi/μL GTPγS^35 in a final volume of 60 μL. The reaction was started by the addition of compounds (GABA was always included as a positive control), start concentration 100 μM dilution factor 3. The reaction was terminated and membranes collected by addition of ice-cold wash buffer (50 mM Tris-HCl, 5 mM MgCl2×6H2O, 50 mM NaCl, pH 7.4 at 4° C.) followed by rapid filtration under vacuum through a MultiScreen HTS 384 FB filter plate. Repeated washing of the filters with ice-cold wash buffer washed the unbound radioligand away. The filter plates were dried for 1½-2 hours at 50° C., then 8 μL scintillation liquid was added per well followed by incubation at RT for at least 20 minutes before bound radioactivity was determined using a β-Liquid Scintillation Counter (1450 Microbeta Trilux, Wallac, Finland)
100% activation (max) is calculated as the mean value for wells containing 1 mM GABA. […]

T1 sequence (Q9UBS5 15-961 limits assumed): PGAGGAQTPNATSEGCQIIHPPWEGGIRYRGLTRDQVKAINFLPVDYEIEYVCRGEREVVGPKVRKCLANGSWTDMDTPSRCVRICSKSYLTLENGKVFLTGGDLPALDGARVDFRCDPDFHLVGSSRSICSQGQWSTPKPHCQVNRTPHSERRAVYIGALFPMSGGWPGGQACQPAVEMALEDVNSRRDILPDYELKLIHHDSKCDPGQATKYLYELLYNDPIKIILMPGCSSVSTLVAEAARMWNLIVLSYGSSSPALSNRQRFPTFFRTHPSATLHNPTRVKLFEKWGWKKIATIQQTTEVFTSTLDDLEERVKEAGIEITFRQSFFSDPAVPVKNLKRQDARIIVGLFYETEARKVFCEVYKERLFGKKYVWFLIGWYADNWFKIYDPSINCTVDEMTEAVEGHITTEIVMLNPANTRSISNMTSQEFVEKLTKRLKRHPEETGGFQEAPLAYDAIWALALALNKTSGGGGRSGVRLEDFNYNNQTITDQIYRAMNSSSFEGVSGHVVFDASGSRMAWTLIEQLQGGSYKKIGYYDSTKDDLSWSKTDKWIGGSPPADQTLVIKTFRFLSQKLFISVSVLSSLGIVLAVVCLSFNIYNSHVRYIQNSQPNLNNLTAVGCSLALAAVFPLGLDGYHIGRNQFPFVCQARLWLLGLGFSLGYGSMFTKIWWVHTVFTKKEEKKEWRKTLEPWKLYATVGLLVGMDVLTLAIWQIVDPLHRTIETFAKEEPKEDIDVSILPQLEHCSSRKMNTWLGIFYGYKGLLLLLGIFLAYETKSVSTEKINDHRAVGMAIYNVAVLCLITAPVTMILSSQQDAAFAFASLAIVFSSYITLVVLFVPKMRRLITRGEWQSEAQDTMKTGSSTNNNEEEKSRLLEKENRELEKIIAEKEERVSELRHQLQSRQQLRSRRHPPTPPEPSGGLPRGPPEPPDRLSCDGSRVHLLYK
T1 sequence (O75899 42-941): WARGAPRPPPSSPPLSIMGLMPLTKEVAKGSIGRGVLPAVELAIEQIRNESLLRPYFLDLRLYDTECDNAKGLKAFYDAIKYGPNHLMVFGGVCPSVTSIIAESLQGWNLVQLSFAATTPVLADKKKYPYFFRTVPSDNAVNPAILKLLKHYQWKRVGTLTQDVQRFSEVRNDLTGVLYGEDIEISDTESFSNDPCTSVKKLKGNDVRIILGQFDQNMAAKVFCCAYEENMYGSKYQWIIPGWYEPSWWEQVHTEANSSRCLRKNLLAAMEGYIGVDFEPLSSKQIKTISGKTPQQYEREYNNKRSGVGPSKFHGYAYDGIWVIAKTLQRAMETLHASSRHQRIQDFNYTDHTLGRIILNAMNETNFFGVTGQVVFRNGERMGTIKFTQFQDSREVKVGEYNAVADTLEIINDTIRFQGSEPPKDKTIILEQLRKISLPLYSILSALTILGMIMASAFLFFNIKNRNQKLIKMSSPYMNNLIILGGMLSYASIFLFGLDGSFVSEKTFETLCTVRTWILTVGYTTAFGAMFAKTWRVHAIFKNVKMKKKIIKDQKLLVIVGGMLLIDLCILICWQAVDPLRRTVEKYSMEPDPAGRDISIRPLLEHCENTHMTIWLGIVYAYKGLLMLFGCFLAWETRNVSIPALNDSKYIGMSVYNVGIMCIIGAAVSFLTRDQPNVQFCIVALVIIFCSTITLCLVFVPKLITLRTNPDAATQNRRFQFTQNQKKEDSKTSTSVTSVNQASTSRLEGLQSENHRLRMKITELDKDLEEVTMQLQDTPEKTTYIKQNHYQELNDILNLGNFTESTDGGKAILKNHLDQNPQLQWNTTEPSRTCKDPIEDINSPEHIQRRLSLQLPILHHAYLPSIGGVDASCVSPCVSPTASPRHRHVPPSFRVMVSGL

In general, EC50 refers to the concentration that produces a half-maximal response. In the case of `Cc1nc2ccc(N3CCCCC3)cc2c(-c2ccc(F)cc2)c1C(C)Oc1cccnc1` (stereo not drawn) [Example 9, 4-(4-fluorophenyl)-2-methyl-6-piperidin-1-yl-3-[1-(pyridin-3-yloxy)ethyl]quinoline], the EC50 was determined as 3000 nM. Regarding `Cc1nc2ccc(N3CCCCC3)cc2c(-c2ccc(F)cc2)c1C(C)Oc1ccccc1C#N` (stereo not drawn) [Example 15, 2-{1-[4-(4-fluorophenyl)-2-methyl-6-piperidin-1-ylquinolin-3-yl]ethoxy}benzonitrile], the EC50 amounted to 900 nM. `Cc1nc2ccc(N3CCCCC3)cc2c(-c2ccc(F)cc2)c1C(C)Oc1ccccc1C(C)C` (stereo not drawn) [Example 13, 4-(4-fluorophenyl)-3-[1-(2-isopropylphenoxy)ethyl]-2-methyl-6-piperidin-1-ylquinoline] yielded an EC50 of 300 nM.

With `Cc1nc2ccc(N3CCN(C)CC3)cc2c(-c2ccc(F)cc2)c1C(C)Oc1ccc(Cl)cc1` (stereo not drawn) [Example 17, 3-[1-(4-chlorophenoxy)ethyl]-4-(4-fluorophenyl)-2-methyl-6-(4-methylpiperazin-1-yl)quinoline], the EC50 was determined as 7600 nM. Under `Cc1nc2ccc(N3CCCCC3)cc2c(-c2ccc(F)cc2)c1C(C)Oc1cccc(C#N)c1` (stereo not drawn) [Example 7, 3-{1-[4-(4-fluorophenyl)-2-methyl-6-piperidin-1-ylquinolin-3-yl]ethoxy}benzonitrile] stands 1500 nM. Then `Cc1nc2ccc(N3CCCCC3)cc2c(-c2ccc(F)cc2)c1C(C)n1ccccc1=O` (stereo not drawn) [Example 16, 1-{1-[4-(4-fluorophenyl)-2-methyl-6-piperidin-1-ylquinolin-3-yl]ethyl}pyridin-2(1H)-one], with 24000 nM.

`COc1ccc(OC(C)c2c(C)nc3ccc(N4CCCCC4)cc3c2-c2ccc(F)cc2)cc1` (stereo not drawn) [Example 11, 4-(4-fluorophenyl)-3-[1-(4-methoxyphenoxy)ethyl]-2-methyl-6-piperidin-1-ylquinoline] came in with an EC50 of 1600 nM. Then `Cc1nc2ccc(N3CCCCC3)cc2c(-c2ccc(F)cc2)c1C(C)Oc1cccc(C(N)=O)c1` (stereo not drawn) [Example 14, 3-{1-[4-(4-fluorophenyl)-2-methyl-6-piperidin-1-ylquinolin-3-yl]ethoxy}benzamide], with 4500 nM. Turning to `Cc1nc2ccc(N3CCN(C)CC3)cc2c(-c2ccc(F)cc2)c1C(C)Oc1ccccc1C(C)C` (stereo not drawn) [Example 18, 4-(4-fluorophenyl)-3-[1-(2-isopropylphenoxy)ethyl]-2-methyl-6-(4-methylpiperazin-1-yl)quinoline], the midpoint of the response, the EC50, lay at 4300 nM.

On to `Cc1nc2ccc(N3CCCCC3)cc2c(-c2ccc(F)cc2)c1C(C)Oc1ccccc1Cl` (stereo not drawn) [Example 10, 3-[1-(2-chlorophenoxy)ethyl]-4-(4-fluorophenyl)-2-methyl-6-piperidin-1-ylquinoline], for which the half-maximal effective concentration (EC50) worked out at 1300 nM. Then `Cc1nc2ccc(N3CCCCC3)cc2c(-c2ccc(F)cc2)c1C(C)Oc1ccccn1` (stereo not drawn) [Example 5, 4-(4-fluorophenyl)-2-methyl-6-piperidin-1-yl-3-[1-(pyridin-2-yloxy)ethyl]quinoline], with 1800 nM; and `Cc1nc2ccc(N3CCCCC3)cc2c(-c2ccc(F)cc2)c1C(C)Oc1ccc(O)cc1` (stereo not drawn) [Example 19, 4-{1-[4-(4-fluorophenyl)-2-methyl-6-piperidin-1-ylquinolin-3-yl]ethoxy}phenol], with 1200 nM; and `Cc1nc2ccc(N3CCCCC3)cc2c(-c2ccc(F)cc2)c1COc1ccc(Cl)cc1` [Example 25, 3-[(4-chlorophenoxy)methyl]-4-(4-fluorophenyl)-2-methyl-6-piperidin-1-ylquinoline], with 1100 nM. Under `Cc1nc2ccc(N3CCCCC3)cc2c(-c2ccc(F)cc2)c1C(C)Oc1cccc(N(C)C)c1` (stereo not drawn) [Example 12, (3-{1-[4-(4-fluorophenyl)-2-methyl-6-piperidin-1-ylquinolin-3-yl]ethoxy}phenyl)dimethylamine] stands 2200 nM; under `Cc1nc2ccc(N3CCCCC3)cc2c(-c2ccc(F)cc2)c1C(C)Oc1ccc(C#N)cc1` (stereo not drawn) [Example 6, 4-{1-[4-(4-fluorophenyl)-2-methyl-6-piperidin-1-ylquinolin-3-yl]ethoxy}benzonitrile], 2900 nM.
